These results are taken from EP0324626A1, “1,4-Dihydropyridine derivatives” (priority 1988, dated 1989).

This data set can be described thus: Acute toxicity test (limit test and range finding test), oral administration. The conditions noted are these: both, ICR, mouse, in vivo. How it is done:
The limit test and the range finding test were carried out using the SPF mice, as stated below, and LD₅₀ values were determined.
The dead mice are weighed and organ examinations are carried out for macroscopical lesions. Also, on the last day of the test all surviving mice are sacrificed and used for examinations.
If the mortality is more than 50% in the limit test, the range finding test is carried out for 14 days with three doses groups including the putative LD₅₀ value. The method is same as the foregoing limit test.
The term LD50 denotes the dose expected to kill half of the subjects tested. The compound `C=CC(C)OC(=O)C1=C(C)NC(C)=C(C(=O)OCCN(C)Cc2ccccc2)C1c1cccc([N+](=O)[O-])c1` (stereo not drawn) [Example 1, 3-β-(N-benzyl-N-methylamino)ethyl 5-(1-methyl-2-propenyl) 2,6-dimethyl-4-(3′-nitrophenyl)-1,4-dihydropyridine-3,5-dicarboxylate] had an LD50 at 14 days of over 1000 mg/kg.

Compound `C=CC(C)OC(=O)C1=C(C)NC(C)=C(C(=O)OCCOC)C1c1cccc([N+](=O)[O-])c1` (stereo not drawn) [Example 3, 3-(1-methyl-2-propenyl) 5-(2-methoxyethyl) 2,6-dimethyl-4-(3′-nitrophenyl)-1,4-dihydropyridine-3,5-dicarboxylate] had an LD50 at 14 days of over 5000 mg/kg. In the case of `C=C(C)COC(=O)C1=C(C)NC(C)=C(C(=O)OCCN(C)Cc2ccccc2)C1c1cccc([N+](=O)[O-])c1` (stereo not drawn) [Example 8, 3-β-(N-benzyl-N-methylamino)ethyl 5-(2-methyl-2-propenyl) 2,6-dimethyl-4-(3′-nitrophenyl)-1,4-dihydropyridine-3,5-dicarboxylate], the LD50 at 14 days is over 1000 mg/kg. As for `C=C(C)COC(=O)C1=C(C)NC(C)=C(C(=O)OC)C1c1cccc([N+](=O)[O-])c1` (stereo not drawn) [Example 12, 3-methyl 5-(2-methyl-2-propenyl) 2,6-dimethyl-4-(3′-nitrophenyl)-1,4-dihydropyridine-3,5-dicarboxylate], the LD50 at 14 days came out at 1000 mg/kg. Compound `C=CCOC(=O)C1=C(C)NC(C)=C(C(=O)OCC(=C)C)C1c1cccc([N+](=O)[O-])c1` (stereo not drawn) [Example 13, 3-(2-methyl-2-propenyl) 5-allyl 2,6-dimethyl-4-(3′-nitrophenyl)-1,4-dihydropyridine-3,5-dicarboxylate] showed an LD50 at 14 days of over 5000 mg/kg. The compound `COC(=O)C1=C(C)NC(C)=C(C(=O)OCCN(C)Cc2ccccc2)C1c1cccc([N+](=O)[O-])c1` (stereo not drawn) [Nicardipine, reference compound] returned an LD50 at 14 days of under 700 mg/kg.
